Measurements: patent publication US9434739B2, “Systemic insecticide” (priority 2007, dated 2016)

Columns and labels:
[1] = tested on: Rhopalosiphum padi; assay: Root soaking with single agent and admixture on wheat against Rhopalosiphum padi (Test Example 9); assay type: in vivo; conditions: for Preventive value: six days after release
Experimental: The root of wheat seedlings 48 hr after seeding was soaked for 72 hr in an admixture solution, adjusted to a predetermined concentration, as a 10% aqueous acetone solution. 72 hrs after the treatment, 10 larval Rhopalosiphum padi for each seedling were released on the seedlings. Thereafter, the seedlings were allowed to stand in a thermostatic chamber of 25° C. The number of parasites on stems and leaves was observed six days after the release. The density index of each of the treated plots was determined by presuming the density of the non-treated plots to be 100, and the preventive value was calculated by the same equation as in Test Example 8.
(§1) When the density index exceeded 100, the preventive value was regarded as 0 (zero).
(§2) Theoretical value=A+B−(A×B)/100 Colby's formula
(§3) where A: preventive value when treatment was performed only with compound 4, and
B: preventive value when treatment was performed only with each of acetamiprid, acephate, and imidacloprid.
When the preventive value against Rhopalosiphum padi for the admixture in Table 12 exceeded the theoretical value calculated by the Colby's formula shown in Table 13, the admixture was determined to have a synergistic effect.

[2] = tested on: Rhopalosiphum padi; assay: Root soaking treatment test on wheat seedlings against Rhopalosiphum padi (Test Example 3 and Comparative Tests); assay type: in vivo; conditions: wheat seedling root soaked 72 hr in test solution (100 ppm), 20 μg/seedling, 25° C.
Experimental: The root of wheat seedlings 48 hr after seeding was soaked for 72 hr in a test solution (100 ppm) prepared as a 10% aqueous acetone solution. 72 hrs after the treatment, 10 larval Rhopalosiphum padi were released for each seedling. Thereafter, the seedlings were allowed to stand in a thermostatic chamber of 25° C. The number of parasites on stems and leaves was observed six days after the release, and the density index was calculated by the same equation as in Test Example 1. The test was duplicated.
For compounds 8 and 9 described in Table 6, a insecticidal effect against Rhopalosiphum padi was examined in the same manner as in Test Example 3.

[3] = tested on: Myzus persicae Sulzer; assay: Reference Test: cabbage leaf disk spraying treatment against Myzus persicae Sulzer; assay type: in vivo; conditions: 20 ppm test solution spread over cabbage leaf disk, first instar larvae, three days after release, 25° C.
Description: A leaf disk having a diameter of 2.8 cm was cut out from a cabbage grown in a pot and was placed in a 5.0 cm-Schale. Four adult aphids of Myzus persicae Sulzer were released in the Schale. One day after the release of the adult aphids, the adult aphids were removed. The number of larvae at the first instar born in the leaf disk was adjusted to 10, and 20 ppm of a test solution which had been prepared as a 50% aqueous acetone solution (0.05% Tween 20 added) was spread over the cabbage leaf disk. The cabbage leaf disk was then air dried. Thereafter, the Schale was lidded and was allowed to stand in a thermostatic chamber of 25° C. […] Mortality (%)={number of dead larvae/(number of survived larvae+number of dead larvae)}×100

[4] = tested on: Trialeurodes uaporariorum; assay: Soil drenching treatment test on cucumber against Trialeurodes uaporariorum (Test Example 5); assay type: in vivo; conditions: soil drenching of cucumber pot, 0.5 mg/seedling, larvae, 9 days after drenching
Experimental: Adults of Trialeurodes uaporariorum were released on cucumber seedlings, grown in a pot, for egg laying purposes for two days. 10 days after the start of egg laying, it was confirmed that larvae were hatched from the delivered eggs. The soil in the cucumber pot was drenched with 5 mL of a test solution adjusted to a predetermined concentration with a 10% aqueous acetone solution. The cucumber pot was allowed to stand in a thermostatic chamber of 25° C. (light period 16 hr-dark period 8 hr). 9 days after the drenching, the number of survived larvae was measured, and the mortality of larvae was calculated by the following equation. The test was duplicated. Mortality (%)={(number of larvae before treatment−number of survived larvae)/number of larvae before treatment}×100

[5] = tested on: Laodelphax stratella; assay: Soil drenching treatment test on rice seedlings against Laodelphax stratella (Test Example 6); assay type: in vivo; conditions: soil drenching of rice pot, 0.5 mg/seedling, second instar larvae, 3 days after release
Experimental: (§4) Rice seedlings grown in a pot were provided. Soil in the pot was drenched with a test solution adjusted to a predetermined concentration with a 10% aqueous acetone solution. After standing for three days, 10 larvae at the second instar were released on the rice seedlings. Thereafter, the pot was allowed to stand in a thermostatic chamber of 25° C. (light period 16 hr-dark period 8 hr). 3 days after the release, the number of survived larvae was measured, and the mortality of larvae was calculated by the same equation as in the Reference Test. The test was duplicated.

[6] = tested on: Nephotettix cincticeps; assay: Soil drenching treatment test on rice seedlings against Nephotettix cincticeps (Test Example 7); assay type: in vivo; conditions: soil drenching of rice pot, 1.0 mg/seedling, second instar larvae, 3 days after release
Experimental: as §4, with “seedling.” for “seedlings.”

[7] = tested on: Aphis gossypii; assay: Soil drenching with single agent and admixture on cucumber against Aphis gossypii (Test Example 8); assay type: in vivo; conditions: for Preventive value: 2 days after release
Experimental: Cucumber seedlings were treated by soil drenching with a single agent and an admixture adjusted to a predetermined concentration with water. The chemical was absorbed through the root for two days, and four adults of Aphis gossypii for each seedling were released on the seedlings. Thereafter, the seedlings were allowed to stand in a thermostatic chamber of 25° C. 2 days after the release, the number of parasites on the leaves was observed. The density index in each treated plot was determined by presuming the density in the non-treated plot to be 100. The preventive value was calculated by the following equation. Preventive value=100−density index
as §1, §2, §3
B: preventive value when treatment was performed only with each of acephate and imidacloprid.
When the numerical value for the admixture in Table 10 exceeded the theoretical value calculated by the Colby's formula shown in Table 11, the admixture was determined to have a synergistic effect.

[8] = tested on: Plutella xylostella; conditions: described in WO 2004/060065 and Applied and Environmental Microbiology (1995), 61(12), 4429-35; cited from earlier work
[9] = tested on: Tenebrio molitor; conditions: described in WO 2004/060065 and Applied and Environmental Microbiology (1995), 61(12), 4429-35; cited from earlier work
[10] = tested on: Helicoverpa armiger; conditions: described in WO 2004/060065 and Applied and Environmental Microbiology (1995), 61(12), 4429-35; cited from earlier work
[11] = Compound 4 0 μg/seedling, acetamiprid 0.0078, acephate 0.5, imidacloprid 0.0078 μg/seedling
[12] = Compound 4 0 μg/seedling, other insecticide alone (acetamiprid 0.0078, acephate 0.5, imidacloprid 0.0078 μg/seedling)
[13] = Compound 4 0.05 mg/seedling, alone (—) or with acephate 0.1 mg/seedling or imidacloprid 0.005 mg/seedling
[14] = Compound 4 0.5 μg/seedling, alone (—) or with acetamiprid 0.0078, acephate 0.5 or imidacloprid 0.0078 μg/seedling
[15] = Compound 4 0 mg/seedling, acephate 0.1 mg/seedling, imidacloprid 0.005 mg/seedling
[16] = Compound 4 0 mg/seedling, other insecticide alone (acephate 0.1 mg/seedling, imidacloprid 0.005 mg/seedling)

Q: Which “Theoretical value calculated by Colby's formula” value (“Theoretical value calculated” for short) [1, 11] does the source give for `C/C(=N\C#N)N(C)Cc1ccc(Cl)nc1` [Acetamiprid, acetamiprid] here?
A: 5.9

Q: And the Preventive value [1, 12]?
A: 5.9

Q: Which “Density index 6 days after release” value [2] does the source give for `CC1(COC(=O)C2CC2)C2C[C@H](O)[C@@]3(C)Oc4cc(-c5cccnc5)oc(=O)c4[C@H](O)C3[C@@]2(C)CC[C@@H]1OC(=O)C1CC1` (some centres unmarked) [Compound 4] here?
A: 5

Q: And the Mortality [3]?
A: 100%

Q: And the “Mortality (%)” value [4]?
A: 67%

Q: What about the “Mortality (%)” value [5] of the same molecule?
A: 34%

Q: And the “Mortality (%)” value [6]?
A: 60%

Q: What about the “Theoretical value calculated” value [7, 13] of the same molecule?
A: 0

Q: What about the Preventive value [7, 13] of the same molecule?
A: 0

Q: And the “Theoretical value calculated” value [1, 14]?
A: 0

Q: What about the Preventive value [1, 14] of the same molecule?
A: 0

Q: What does the source list for `COP(=O)(NC(C)=O)SC` (centres unmarked) [Acephate, acephate]?
A: Theoretical value calculated by Colby's formula [7, 15]: 70; Preventive value [7, 16]: 70; Theoretical value calculated by Colby's formula [1, 11]: 55.6; Preventive value [1, 12]: 55.6

Q: For `O=[N+]([O-])NC1=NCCN1Cc1ccc(Cl)nc1` [Imidacloprid, imidacloprid], which “Theoretical value calculated” value [7, 15] is on record?
A: 16

Q: And the Preventive value [7, 16]?
A: 16

Q: And the “Theoretical value calculated” value [1, 11]?
A: 28.6

Q: What about the Preventive value [1, 12] of the same molecule?
A: 28.6

Q: With `CC1(COC(=O)C2CC2)C2CC(=O)[C@@]3(C)Oc4cc(-c5cccnc5)oc(=O)c4[C@H](O)C3[C@@]2(C)CC[C@@H]1OC(=O)C1CC1` (some centres unmarked) [Compound 6] as the molecule, how does the “Density index 6 days after release” value [2] read?
A: 0

Q: And the Mortality [3]?
A: 100%

Q: What does the source list for `CC1(COC(=O)C2CC2)C2CC[C@@]3(C)Oc4cc(-c5cccnc5)oc(=O)c4[C@H](O)C3[C@@]2(C)CC[C@@H]1OC(=O)C1CC1` (some centres unmarked) [Compound 7]?
A: Density index 6 days after release [2]: 41; Mortality [3]: 100%

Q: Which insecticidal effect [8] does the source give for pyripyropene A here?
A: has insecticidal effect

Q: And the insecticidal effect [9]?
A: has insecticidal effect

Q: What about the insecticidal effect [10] of the same molecule?
A: has insecticidal effect
